Experimental data reported in patent US20260217683A1, “PYRIDAZINONE HETEROCYCLIC COMPOUND MYOSIN II INHIBITOR AND USE THEREOF” (Xizang Haisco Pharmaceutical Co., Ltd., priority 2023, published 2026).
pIC50: −log10 of the molar value. Like-named read-outs stand apart in the source and are kept apart here.

How the values were obtained:
CYP2C19 = molecular target: T1, CYP2C19 (Homo sapiens, UniProt P33261); assay: CYP450 enzyme inhibition, human liver microsomes, CYP2C19; assay type: in vitro ADME
T1 construct: incubated with human liver microsomes and test compounds of different concentrations; from tissue; host or cells: human liver microsomes
T1 sequence (P33261 whole entry): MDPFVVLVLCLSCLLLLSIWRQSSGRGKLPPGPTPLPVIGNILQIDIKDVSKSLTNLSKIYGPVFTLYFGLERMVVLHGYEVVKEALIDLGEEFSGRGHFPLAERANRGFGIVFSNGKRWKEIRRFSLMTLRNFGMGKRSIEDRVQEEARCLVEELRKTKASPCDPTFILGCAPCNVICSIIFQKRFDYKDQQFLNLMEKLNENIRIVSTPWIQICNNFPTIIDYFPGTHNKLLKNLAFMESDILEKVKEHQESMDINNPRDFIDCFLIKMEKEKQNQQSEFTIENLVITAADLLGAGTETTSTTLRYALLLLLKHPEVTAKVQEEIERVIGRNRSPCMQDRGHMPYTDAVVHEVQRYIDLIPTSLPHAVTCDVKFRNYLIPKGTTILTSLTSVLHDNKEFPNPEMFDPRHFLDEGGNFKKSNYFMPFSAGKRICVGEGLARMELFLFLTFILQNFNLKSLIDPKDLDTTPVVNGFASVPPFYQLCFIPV
Protocol: (§1) The purpose of this study was to evaluate the effect of the test compound on the activity of five isoenzymes (CYP1A2, CYP2C9, CYP2C19, CYP2D6 and CYP3A4) of human liver microsomal cytochrome P450 (CYP) by using an in vitro testing system. The specific probe substrates of CYP450 isoenzymes were incubated with human liver microsomes and test compounds of different concentrations, and reduced nicotinamide adenine dinucleotide phosphate (NADPH) was added to initiate the reaction. After the completion of the reaction, the sample was treated and liquid chromatography-tandem mass spectrometry (LC-MS/MS) was used to quantitatively detect metabolites produced by specific substrates, changes in CYP enzyme activity were determined, and IC50 value was calculated to evaluate the inhibitory potential of the test compound on each CYP enzyme subtype.

CYP3A4 = molecular target: T2, CYP3A4 (Homo sapiens, UniProt P08684); assay: CYP450 enzyme inhibition, human liver microsomes, CYP3A4; assay type: in vitro ADME
T2 construct: incubated with human liver microsomes and test compounds of different concentrations; from tissue; host or cells: human liver microsomes
T2 sequence (P08684 whole entry): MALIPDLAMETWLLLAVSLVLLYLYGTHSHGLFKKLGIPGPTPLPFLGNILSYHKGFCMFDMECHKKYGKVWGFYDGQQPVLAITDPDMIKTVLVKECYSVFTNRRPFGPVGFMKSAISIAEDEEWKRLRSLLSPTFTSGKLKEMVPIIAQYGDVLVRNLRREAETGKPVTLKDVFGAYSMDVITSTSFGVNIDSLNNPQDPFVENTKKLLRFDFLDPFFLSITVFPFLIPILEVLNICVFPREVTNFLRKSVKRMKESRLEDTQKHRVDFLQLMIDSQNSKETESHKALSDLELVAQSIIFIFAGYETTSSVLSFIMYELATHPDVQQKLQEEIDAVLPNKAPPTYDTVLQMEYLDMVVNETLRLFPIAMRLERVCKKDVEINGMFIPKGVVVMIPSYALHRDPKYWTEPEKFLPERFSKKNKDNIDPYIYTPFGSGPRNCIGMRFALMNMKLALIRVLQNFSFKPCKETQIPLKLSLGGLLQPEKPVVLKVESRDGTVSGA
Protocol: as §1

CYP2C9 = molecular target: T3, CYP2C9 (Homo sapiens, UniProt P11712); assay: CYP450 enzyme inhibition, human liver microsomes, CYP2C9; assay type: in vitro ADME
T3 construct: incubated with human liver microsomes and test compounds of different concentrations; from tissue; host or cells: human liver microsomes
T3 sequence (P11712 whole entry): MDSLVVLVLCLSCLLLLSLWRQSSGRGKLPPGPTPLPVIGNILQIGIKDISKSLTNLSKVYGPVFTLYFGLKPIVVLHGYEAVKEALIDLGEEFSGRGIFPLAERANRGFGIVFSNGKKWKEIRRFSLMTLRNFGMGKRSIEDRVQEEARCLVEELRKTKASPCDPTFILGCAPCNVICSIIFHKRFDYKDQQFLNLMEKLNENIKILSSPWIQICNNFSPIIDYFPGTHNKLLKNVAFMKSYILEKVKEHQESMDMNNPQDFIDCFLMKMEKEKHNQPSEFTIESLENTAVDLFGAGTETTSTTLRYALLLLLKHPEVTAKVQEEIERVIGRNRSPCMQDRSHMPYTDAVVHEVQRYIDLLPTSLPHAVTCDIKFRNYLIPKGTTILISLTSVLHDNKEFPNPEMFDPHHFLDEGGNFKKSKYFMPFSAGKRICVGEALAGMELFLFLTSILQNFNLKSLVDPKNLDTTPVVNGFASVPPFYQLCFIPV
Protocol: as §1

CYP2D6 = molecular target: T4, CYP2D6 (Homo sapiens, UniProt P10635); assay: CYP450 enzyme inhibition, human liver microsomes, CYP2D6; assay type: in vitro ADME
T4 construct: incubated with human liver microsomes and test compounds of different concentrations; from tissue; host or cells: human liver microsomes
T4 sequence (P10635 whole entry): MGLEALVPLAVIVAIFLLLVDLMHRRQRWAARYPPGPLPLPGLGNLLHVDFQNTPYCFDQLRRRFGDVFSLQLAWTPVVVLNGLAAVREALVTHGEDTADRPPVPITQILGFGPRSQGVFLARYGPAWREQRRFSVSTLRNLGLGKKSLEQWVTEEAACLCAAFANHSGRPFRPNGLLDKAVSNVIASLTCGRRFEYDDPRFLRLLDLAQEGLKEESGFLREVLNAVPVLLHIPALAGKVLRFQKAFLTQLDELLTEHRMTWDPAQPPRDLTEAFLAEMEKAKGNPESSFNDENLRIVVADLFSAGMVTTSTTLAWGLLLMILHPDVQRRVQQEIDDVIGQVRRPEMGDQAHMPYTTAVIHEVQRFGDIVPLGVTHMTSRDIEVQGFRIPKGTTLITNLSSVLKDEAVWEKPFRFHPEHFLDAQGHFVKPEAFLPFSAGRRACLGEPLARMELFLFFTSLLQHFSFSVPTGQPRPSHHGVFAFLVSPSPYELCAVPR
Protocol: as §1

[1] = system: rabbit skeletal muscle myosin; assay: Inhibition of hydrolysis of ATP by rabbit skeletal muscle myosin; assay type: biochemical
Summary of the method: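 Actin-activated ATPase: F-actin plus rabbit skeletal myosin II with compound in Tris-HCl pH 7.5/KCl/EGTA/MgCl2, started with ATP (3 mM working stock) and run 60 min at 37 °C. Released Pi measured by CytoPhos absorbance at 650 nm against a phosphate standard curve; IC50 fitted from inhibition relative to uninhibited myosin.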

cardiac myosin SII = molecular target: T5, cardiac myosin SII (Bos taurus, UniProt Q9BE39); assay: Inhibition of hydrolysis of ATP by cardiac myosin SII; assay type: biochemical; details: 100 μM compound
T5 construct: purchased Cytoskeleton #MYO3-A
T5 sequence (Q9BE39 whole entry): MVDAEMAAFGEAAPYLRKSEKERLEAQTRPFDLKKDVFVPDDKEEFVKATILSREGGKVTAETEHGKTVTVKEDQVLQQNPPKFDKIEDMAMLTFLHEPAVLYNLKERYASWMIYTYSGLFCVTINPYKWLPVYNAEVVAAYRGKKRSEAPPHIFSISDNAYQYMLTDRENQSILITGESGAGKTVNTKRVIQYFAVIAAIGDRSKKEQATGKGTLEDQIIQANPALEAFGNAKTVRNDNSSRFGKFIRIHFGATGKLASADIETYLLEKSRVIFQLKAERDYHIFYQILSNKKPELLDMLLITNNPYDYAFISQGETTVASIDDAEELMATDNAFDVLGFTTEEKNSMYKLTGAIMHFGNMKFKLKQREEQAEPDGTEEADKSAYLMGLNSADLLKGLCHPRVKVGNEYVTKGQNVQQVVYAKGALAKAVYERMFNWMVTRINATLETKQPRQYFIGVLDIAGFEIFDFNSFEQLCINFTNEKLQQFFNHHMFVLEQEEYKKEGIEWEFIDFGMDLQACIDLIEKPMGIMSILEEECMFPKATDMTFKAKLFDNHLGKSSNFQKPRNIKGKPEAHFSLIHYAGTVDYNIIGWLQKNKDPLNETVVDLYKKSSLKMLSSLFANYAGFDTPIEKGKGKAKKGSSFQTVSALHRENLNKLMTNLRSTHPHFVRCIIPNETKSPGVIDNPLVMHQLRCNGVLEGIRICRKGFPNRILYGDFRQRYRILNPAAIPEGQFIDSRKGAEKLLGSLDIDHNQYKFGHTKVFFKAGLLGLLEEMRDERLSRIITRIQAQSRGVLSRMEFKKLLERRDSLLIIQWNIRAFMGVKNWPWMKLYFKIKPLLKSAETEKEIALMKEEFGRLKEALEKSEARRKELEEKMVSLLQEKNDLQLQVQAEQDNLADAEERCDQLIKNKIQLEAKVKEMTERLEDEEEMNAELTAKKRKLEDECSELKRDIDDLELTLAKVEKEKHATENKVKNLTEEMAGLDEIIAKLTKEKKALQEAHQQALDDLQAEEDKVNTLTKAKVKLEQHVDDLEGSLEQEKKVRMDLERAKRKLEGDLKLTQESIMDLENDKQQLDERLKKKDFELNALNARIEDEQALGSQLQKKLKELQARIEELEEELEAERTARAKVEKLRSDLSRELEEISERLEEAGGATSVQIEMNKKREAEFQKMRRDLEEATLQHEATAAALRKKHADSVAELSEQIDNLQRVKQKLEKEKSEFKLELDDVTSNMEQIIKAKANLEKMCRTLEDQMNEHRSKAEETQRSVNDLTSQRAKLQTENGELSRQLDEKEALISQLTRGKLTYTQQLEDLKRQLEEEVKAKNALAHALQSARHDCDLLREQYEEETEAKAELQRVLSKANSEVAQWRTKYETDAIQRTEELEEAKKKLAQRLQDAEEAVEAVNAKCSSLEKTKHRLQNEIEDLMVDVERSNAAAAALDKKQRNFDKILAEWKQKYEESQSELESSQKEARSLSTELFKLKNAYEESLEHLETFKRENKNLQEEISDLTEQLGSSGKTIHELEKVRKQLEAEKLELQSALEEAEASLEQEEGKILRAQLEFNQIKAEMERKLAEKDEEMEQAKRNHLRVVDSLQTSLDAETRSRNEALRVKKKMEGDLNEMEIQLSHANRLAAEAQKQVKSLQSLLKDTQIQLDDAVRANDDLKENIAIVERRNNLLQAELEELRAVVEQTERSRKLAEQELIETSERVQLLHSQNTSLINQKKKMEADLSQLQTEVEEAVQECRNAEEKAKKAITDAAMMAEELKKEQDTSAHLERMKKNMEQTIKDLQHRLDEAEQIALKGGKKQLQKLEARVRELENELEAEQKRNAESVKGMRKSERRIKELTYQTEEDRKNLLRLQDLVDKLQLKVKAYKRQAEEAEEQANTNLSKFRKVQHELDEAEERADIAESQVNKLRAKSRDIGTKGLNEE
T5 sequence (P85100 whole entry partner): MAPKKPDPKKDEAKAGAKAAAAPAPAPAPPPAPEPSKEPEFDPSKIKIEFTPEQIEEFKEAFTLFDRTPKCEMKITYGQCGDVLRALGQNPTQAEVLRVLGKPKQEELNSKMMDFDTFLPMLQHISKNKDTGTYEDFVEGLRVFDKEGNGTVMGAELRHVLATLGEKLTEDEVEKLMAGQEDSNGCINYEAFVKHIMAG
T5 sequence (Q3SZE5 whole entry partner): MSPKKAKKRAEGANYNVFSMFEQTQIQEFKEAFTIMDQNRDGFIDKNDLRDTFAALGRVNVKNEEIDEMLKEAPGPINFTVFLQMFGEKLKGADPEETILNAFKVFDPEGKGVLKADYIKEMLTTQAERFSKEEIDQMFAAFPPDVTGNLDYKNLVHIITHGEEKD
Summary of the method: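 Bovine cardiac myosin with preformed F-actin in 15 mM Tris-HCl pH 7.5, 10 mM KCl, 2 mM MgCl2, 0.1 mM EGTA; compounds at 100 μM final, ATP from 3 mM working solution, 2 h at 37 °C. Released Pi measured colorimetrically at 650 nm against a Pi standard curve; % inhibition vs. DMSO control.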

[2] = inhibition of hydrolysis of ATP, class symbols, read-out: Rabbit skeletal muscle myosin (IC50)
[3] = read-out: IC50 for inhibition of hydrolysis of ATP by rabbit skeletal muscle myosin

## N#CC1(COc2ncc(-c3ccc(=O)n(Cc4ccc5c(c4)C(=O)CC5)n3)cn2)CC1 [Compound 158]
CYP2C19
  IC50: > 30 µM
CYP3A4
  IC50: > 30 µM
CYP2C9
  IC50: > 30 µM
CYP2D6
  IC50: > 30 µM
[1]; [2]
  pIC50: > 5.60
Cardiac myosin SII
  inhibition at 100 µM: 10%

## O=C1CCc2ccc(Cn3nc(-c4cnc(O[C@@H]5CCOC5)nc4)ccc3=O)cc21 [Compound 149]
CYP2C19
  IC50: > 30 µM
CYP3A4
  IC50: > 30 µM
CYP2C9
  IC50: > 30 µM
CYP2D6
  IC50: > 30 µM
[1]; [2]
  pIC50: > 5.60
Cardiac myosin SII
  inhibition at 100 µM: 10%

## O=C1CCc2c(F)cc(Cn3nc(-c4cnc(OCC(F)F)nc4)ccc3=O)cc21 [Compound 167]
CYP2C19
  IC50: > 30 µM
CYP3A4
  IC50: > 30 µM
CYP2C9
  IC50: > 30 µM
CYP2D6
  IC50: > 30 µM
[1]; [2]
  pIC50: > 5.60
[1]; [3]
  pIC50: 6.57
Cardiac myosin SII
  inhibition at 100 µM: 4%

## O=C1CCc2c(F)cc(Cn3nc(-c4cnc(O[C@H]5CCOC5)nc4)ccc3=O)cc21 [Compound 165]
CYP2C19
  IC50: > 30 µM
CYP3A4
  IC50: > 30 µM
CYP2C9
  IC50: > 30 µM
CYP2D6
  IC50: > 30 µM
[1]; [2]
  pIC50: 4.70 to 5.60

## O=C1CCc2ccc(Cn3nc(-c4cnc(OCC(F)F)nc4)ccc3=O)cc21 [Compound 131]
CYP2C19
  IC50: > 30 µM
CYP3A4
  IC50: > 30 µM
CYP2C9
  IC50: > 30 µM
CYP2D6
  IC50: > 30 µM
[1]; [2]
  pIC50: > 5.60
[1]; [3]
  pIC50: 6.40

## O=C1CCc2ccc(Cn3nc(-c4cnc(OC5COCC5(F)F)nc4)ccc3=O)cc21 (stereo not shown) [Compound 164]
CYP2C19
  IC50: > 30 µM
CYP3A4
  IC50: > 30 µM
CYP2C9
  IC50: > 30 µM
CYP2D6
  IC50: > 30 µM
[1]; [2]
  pIC50: > 5.60
Cardiac myosin SII
  inhibition at 100 µM: 4%

## O=C1CCc2ccc(Cn3nc(-c4cnc(OC5CC(F)(F)C5)nc4)ccc3=O)cc21 [Compound 141]
CYP2C19
  IC50: > 30 µM
CYP3A4
  IC50: > 30 µM
CYP2C9
  IC50: > 30 µM
CYP2D6
  IC50: > 30 µM
[1]; [2]
  pIC50: > 5.60
[1]; [3]
  pIC50: 6.10
Cardiac myosin SII
  inhibition at 100 µM: 14%

## O=C1CCc2ccc(Cn3nc(-c4cnc(OCC(F)(F)F)nc4)ccc3=O)cc21 [Compound 88]
CYP2C19
  IC50: > 30 µM
CYP3A4
  IC50: > 30 µM
CYP2C9
  IC50: > 30 µM
CYP2D6
  IC50: > 30 µM
[1]; [2]
  pIC50: > 5.60
[1]; [3]
  pIC50: 6.10

## O=C1CCc2ccc(Cn3nc(-c4cnc(Oc5cncc(Cl)c5)nc4)ccc3=O)cc21 [Compound 151]
CYP2C19
  IC50: > 30 µM
CYP3A4
  IC50: > 30 µM
CYP2C9
  IC50: > 30 µM
CYP2D6
  IC50: > 30 µM
[1]; [2]
  pIC50: > 5.60
[1]; [3]
  pIC50: 6.15
Cardiac myosin SII
  inhibition at 100 µM: -2%

## O=c1ccc(-c2cnc(OCC(F)(F)F)nc2)nn1Cc1ccc2c(c1)CCC2 [Compound 57]
[1]; [2]
  pIC50: > 5.60
[1]; [3]
  pIC50: 6.48
Cardiac myosin SII
  inhibition at 100 µM: 1.5%

## O=C1CCc2ccc(Cn3nc(-c4cnc(O[C@H]5CCOC5)nc4)ccc3=O)cc21 [Compound 150]
[1]; [2]
  pIC50: > 5.60
Cardiac myosin SII
  inhibition at 100 µM: 15%
